One data set deals with L929 cell lines. As to the kind of experiment: Direct contact of NADES with cell culture, viability by MTS assay. The format is cell-based. The conditions noted are these: FIG. 3. On the procedure:
In an embodiment, the L929 cell lines were grown in DMEM (Sigma, USA), supplemented with 10% heat-inactivetes fetal bovine serum (FBS, Biochron AG, Germany) and 1% antibiotic-antimicotic (Gibco, USA). The cells were cultured in a humidified atmosphere of 37° C., with 5% CO2.
In an embodiment, the viability of the systems prepared was measured using a method of direct contact with cells (Direct−contact of NADES with cell culture). The cells were seeded onto a 96-well plate for 24 h in the total 1×10^4 cells/well. After 24 h, the medium was removed and extracts with different percentage of NADES, in particular 1%, 5%, 10% and 20% in culture medium were added. The viability of the cells cultured with these extracts was determined by MTS assay, after 24 h and 72 h.
In an embodiment, the MTS cell viability assay was conducted as follows: the influence of the cryopreservants was determined by MTS assay (Cell Titer 96 Aqueous One Solution Cell Proliferation Assay, Promega, USA) after 24 h and 72 h of culture. […] The absorbance was measured at a wavelength of 490 nm using a microplate spectrometer (Synergy HT, Bio-TEK, USA). To the results of absorbance was subtracting the absorbance obtained by blank (culture medium MTS with MTS reagent). […]
(Tetrazolium assays rely on reduction of a dye to a coloured formazan, in cell work by metabolically active cells.)

Another data set relates to L929 cell line. The experiment in a line: Cryopreservation (freezing/thawing) of cells with cryoprotective agent; morphology, live-dead, DAPI-Phalloidin and MTS viability after thawing. The format is cell-based. The conditions noted are these: 10% cryopreservant, FIG. 4. Here is the method: In an embodiment, the cells were freezed and thawed, in particular the cells were collected by centrifugation (300 rpm for 5 min) and suspended in cool mixture with FBS and cryopreservant (DMSO or Treh-Gly; 5% and 10% cryopresenvant in the FBS). The cells and freezing medium were dispensed into cryotubes (Nunc) (1×10^6 cells/1 mL), and immediately placed into a freezing box (Mr. Frosty) at −20° C. for 2 h. Latter they were placed for 24 h at −80° C. and then the cryotubes were placed in liquid nitrogen. The cells were frozen for 1, 2 and 3 months. As control trehalose and glycerol alone were used in the same concentration. […] In an embodiment, the MTS cell viability assay was conducted as follows: the influence of the cryopreservants was determined by MTS assay (Cell Titer 96 Aqueous One Solution Cell Proliferation Assay, Promega, USA) after 24 h and 72 h of culture. […] The absorbance was measured at a wavelength of 490 nm using a microplate spectrometer (Synergy HT, Bio-TEK, USA). To the results of absorbance was subtracting the absorbance obtained by blank (culture medium MTS with MTS reagent). In an embodiment, the live/dead cell viability assay was used (calcein AM/propidium iodide (PI) staining) (n=5 samples per well) to evaluated cell viability. […] In an embodiment, in vitro biological evaluation of NADES performance as cryopreservant was assessed using the L929 cell line. […]

Each structure is given as a SMILES string.

Regarding `C[S+](C)[O-]` [DMSO], the “cell viability in contact with cells” value with L929 cell lines (10% and 20% in the culture media) was “cell dead”; in the data set on L929 cell lines (low concentrations, 1 or 5% in culture media), “very low viability”.
Take `OCC(O)CO` [glycerol]: the “morphological analysis and cell viability after cryopreservation” value in the data set on L929 cell line is “somewhat compromised”.
Still for that read-out and setting: for `OC[C@H]1O[C@H](O[C@H]2O[C@H](CO)[C@@H](O)[C@H](O)[C@H]2O)[C@H](O)[C@@H](O)[C@@H]1O` [trehalose] the value was “somewhat compromised”.

Values taken from US20220125042A1, “CRYOPROTECTANT AND/OR CRYOPRESERVANT COMPOSITION, METHODS AND USES THEREOF” (UNIVERSIDADE NOVA DE LISBOA, priority 2017, published 2022).
